Data reported in patent US10821115B2, “Compounds that inhibit Mcl-1 protein” (priority 2017, dated 2020).
Where two headings read alike, the source gives them in different places.

Experiments:
[1] = biological target: recombinant human Mcl-1 (residues 171-327) / Bim interaction (Homo sapiens (Human), UniProt Q07820); assay: biochemical; type: binding; conditions: read-out: Mcl-1 HTRF IC50
[2] = system: human multiple myeloma cell line, OPM-2; assay: Cell viability assay (OPM-2 10 FBS), CellTiter-Glo; type: cell-based
Procedure, shortened: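 Steps: plate cells at 3000/well in 10% FBS growth medium, add serially diluted compound, incubate 16 h at 37 °C with 5% CO2, add detection reagent and read luminescence after 25 min. A 4-parameter logistic model gives IC50.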

[3] = TR-FRET, Mcl-1(171-327) / biotin-Bim (51-76)
[4] = read-out: OPM-2 10% FBS IC50 IP, OPM-2 cells, 10% FBS, 16 h, CellTiter-Glo
[5] = Homo sapiens, OPM-2, 16 h, read-out: OPM-2 10% FBS IC50 IP, OPM-2 cells, 10% FBS, 16 h, CellTiter-Glo
[6] = 0.1 nM Mcl-1(171-327), 0.05 nM biotin-Bim (51-76)
[7] = read-out: OPM-2 10% FBS IC50 IP, OPM-2 cells, 10% FBS, 16 h incubation

Chain of recombinant human Mcl-1 (residues 171-327) / Bim interaction (Q07820 171-327): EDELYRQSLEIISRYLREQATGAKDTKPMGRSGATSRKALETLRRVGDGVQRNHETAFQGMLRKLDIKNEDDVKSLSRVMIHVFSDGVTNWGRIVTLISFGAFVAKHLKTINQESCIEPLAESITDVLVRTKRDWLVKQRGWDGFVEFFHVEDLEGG

SMILES	IC50 [1, 3] [nM]	IC50 [2, 4] [nM]	IC50 [1, 6] [nM]	other results
C[C@@H]1[C@@H](C)CCC[C@@](O)(C2CCN(C)CC2)[C@@H]2CC[C@H]2CN2C[C@@]3(CCCc4cc(Cl)ccc43)COc3ccc(cc32)C(=O)NS1(=O)=O [Example 100382, (1S,3′R,6′R,7′R,11′S,12′R)-6-chloro-7′-hydroxy-11′,12′-dimethyl-7′-(1-methyl-4-piperidinyl)-3,4-dihydro-2H,15′H-spiro[naphthalene-1,22′-[20]oxa[13]thia[1,14]diazatetracyclo [14.7.2.0~3,6~.0~19,24~]pentacosa[16,18,24]trien]-15′-one 13′,13′-dioxide]	0.471	312	–	–
CO[C@]1(c2ncccn2)/C=C/C[C@H](C)[C@@H](C)S(=O)(=O)NC(=O)c2ccc3c(c2)N(C[C@@H]2CC[C@H]21)C[C@@]1(CCCc2cc(Cl)ccc21)CO3 [Example 100278, (1S,3′R,6′R,7′R,8′E,11′S,12′R)-6-chloro-7′-methoxy-11′,12′-dimethyl-7′-(2-pyrimidinyl)-3,4-dihydro-2H,15′H-spiro[naphthalene-1,22′-[20]oxa[13]thia[1,14]diazatetracyclo [14.7.2.0~3,6~.0~19,24~]pentacosa[8,16,18,24]tetraen]-15′-one 13′,13′-dioxide]	0.458	–	–	IC50 [2, 5]: 333 nM
C[C@@H]1[C@@H](C)CCC[C@@](O)(CN=[N+]=[N-])[C@@H]2CC[C@H]2CN2C[C@@]3(CCCc4cc(Cl)ccc43)COc3ccc(cc32)C(=O)NS1(=O)=O (single isomer, unassigned) [Example 506]	–	–	3.8	IC50 [2, 7]: 7430 nM
CO[C@@H](C[C@]1(OC)/C=C/C[C@H](C)[C@@H](C)S(=O)(=O)NC(=O)c2ccc3c(c2)N(C[C@@H]2CC[C@H]21)C[C@@]1(CCCc2cc(Cl)ccc21)CO3)C1CC1 [Example 100463, (1S,3′R,6′R,7′S,8′E,11′S,12′R)-6-chloro-7′-((2S)-2-cyclopropyl-2-methoxyethyl)-7′-methoxy-11′,12′-dimethyl-3,4-dihydro-2H,15′H-spiro[naphthalene-1,22′-[20]oxa[13]thia[1,14]diazatetracyclo [14.7.2.0~3,6~.0~19,24~]pentacosa[8,16,18,24]tetraen]-15′-one 13′,13′-dioxide]	0.383	1130	–	–
CO[C@]1(CN2CCN3CCC(F)(F)C[C@@H]3C2)/C=C/C[C@H](C)[C@@H](C)S(=O)(=O)NC(=O)c2ccc3c(c2)N(C[C@@H]2CC[C@H]21)C[C@@]1(CCCc2cc(Cl)ccc21)CO3 [Example 292]	–	–	0.356	IC50 [2, 7]: 399 nM
C[C@@H]1[C@@H](C)CCC[C@](O)(CS(C)(=O)=O)[C@@H]2CC[C@H]2CN2C[C@@]3(CCCc4cc(Cl)ccc43)COc3ccc(cc32)C(=O)NS1(=O)=O (stereo in doubt) [Example 100161]	0.355	–	–	IC50 [2, 5]: 757 nM
C[C@@H]1[C@@H](C)CCC[C@](O)([C@@H](C)C(=O)N(C)C)[C@@H]2CC[C@H]2CN2C[C@@]3(CCCc4cc(Cl)ccc43)COc3ccc(cc32)C(=O)NS1(=O)=O (single isomer, unassigned) [Example 100117]	2.4	3170	–	–
CO[C@@]1(CN2CCN(C(C)(C)C)CC2)/C=C/C[C@H](C)[C@@H](C)S(=O)(=O)NC(=O)c2ccc3c(c2)N(C[C@@H]2CC[C@H]21)C[C@@]1(CCCc2cc(Cl)ccc21)CO3 [Example 335, (1S,3′R,6′R,7′S,8′E,11′S,12′R)-7′-((4-tert-butyl-1-piperazinyl)methyl)-6-chloro-7′-methoxy-11′,12′-dimethyl-3,4-dihydro-2H,15′H-spiro[naphthalene-1,22′-[20]oxa[13]thia[1,14]diazatetracyclo [14.7.2.0~3,6~.0~19,24~]pentacosa[8,16,18,24]tetraen]-15′-one 13′,13′-dioxide]	–	–	0.148	IC50 ([2]; Homo sapiens, OPM-2, 16 h, read-out: OPM-2 10% FBS IC50 IP, OPM-2 cells, 10% FBS, 16 h incubation): 133 nM
C[C@@H]1[C@@H](C)C/C=C/[C@@](O)(C#CCN2CCOCC2)[C@@H]2CC[C@H]2CN2C[C@@]3(CCCc4cc(Cl)ccc43)COc3ccc(cc32)C(=O)NS1(=O)=O (single isomer, unassigned) [Example 100018]	0.061	49	–	–
